Measured values: patent US9346839B2
Where two headings read alike, the source gives them in different places.

Experiments:
ABAD = ABAD (Homo sapiens (Human), UniProt Q99714); assay: Surface plasmon resonance (BIACORE 3000) binding experiment with ABAD
Experimental: Binding Experiment with ABAD. The interactions between compounds and ABAD were performed using the dual flow cell BIACORE 3000 instrument. Surface Plasmon Resonance (SPR) studies were performed on a BIACORE 3000 at 25° C. SPR binding experiments with ABAD were performed in phosphate-buffered saline (PBS, pH 7.4, 0.005% surfactant P20) as the running and the sample buffer. […] ABAD was dissolved in PBS buffer (pH 5.0) at a concentration of 10 μg/ml. The protein was immobilized directly and covalently on the hydrophilic carboxymethylated dextran matrix of the CM5 sensor chip (BIACORE) by using the standard primary amine coupling reaction on a CM5 sensor chip according to standard procedures. After the immobilization of the protein, excess activated carboxylic acid groups were quenched with ethanolamine (1 M, pH 8.5).
Special care was taken during injection of samples because of carryover effects. Special washing routines were used to clean the system before injection of new samples. In addition, predipping of needles was performed. The sample flow was 40 μl/minute in experiments performed for the determination of the kinetic and equilibrium constants. Regeneration of the surfaces between subsequent binding experiments was achieved by washing the surface extensively (>>1 hour) with buffer solution. Data analyses were carried out using BIA evaluation software, and the sensor grams were processed by automatic correction for nonspecific bulk refractive index effects. The kinetic analyses of the ligand binding to the protein were performed based on the 1:1 Langmuir binding fit model according to the standard procedures described in the software manual.
To perform kinetic analyses of the binding of phosphonate derivatives to ABAD, the BIACORE 3000 instrument (based on surface plasmon resonance [SPR] technology) was used. The 1:1 Langmuir binding fit model was used for determining the equilibrium dissociation constant (KD), and the association (kon) and dissociation (koff) rate constants by using Equations (1) and (2). dR/dt=kon×C×(Rmax−R)−koff×R (1) Where R represents the response unit, C is the concentration of the analyte, and KD=koff/kon (2) The results were evaluated by χ2 analysis.

SK-N-SH cells [1] = assay: Mitochondrial cytochrome c oxidase (CcO) activity in Aβ-treated cells; type: cell-based; settings: for CcO activity, inhibitor alone: 1 μM inhibitor alone, without Aβ; for Aβ-mediated decrease of CcO activity: 5 μM oligomer Aβ1-42 plus 1 μM compound, 48 hours
Experimental: SK-NSH cells were treated with 5 μM oligomer Aβ plus 1 μM of ABAD inhibitor; inhibitor alone; vehicle (VEH) without inhibitor; or Aβ alone. Forty-eight hour later, CcO activity (μmol protein mg^−1 min^−1) was measured in cell lysates.
Method of Measurement of Mitochondrial Cytochrome c Oxidase (CcO) Activity. The CcO activity was measured according to known methods (Du, et al. (2008) Nat. Med. 14:1097-105) with a cytochrome c oxidase kit (Sigma). In brief, SK-N-SH cells were incubated with ABAD inhibitor and oligomer Aβ for 48 hours. After washing the cells twice with PBS, the cells were collected and concentration was determined by the Bradford method. A suitable volume of cells and enzyme solution was added to 475 μl assay buffer. The reaction was triggered by the addition of 25 μl freshly prepared ferrocytochrome C substrate solution into the cuvette. Changes in OD550 nm were recorded immediately with an Amersham Biosciences ULTROSPECT 3100 pro spectrophotometer.
Cytochrome C Oxidase (CcO) Activity. To assess the effect of ABAD inhibitor on […] mitochondrial respiratory function, CcO activity was determined.

SK-N-SH cells [2] = assay: ATP levels in Aβ-treated cells; type: cell-based; settings: for ATP levels in Aβ-treated cells: 5 μM Aβ1-42 plus 1 μM compound; for ATP levels, inhibitor alone: without Aβ
Experimental: Forty-eight hour later, ATP levels (μmol mg^−1 protein) were measured in cell lysates.
Adenosine-5′-Triphosphate (ATP) Levels. To determine the effect of ABAD inhibitors on Aβ-induced impairment in energy metabolism, ATP levels were measured. […] ATP levels were measured in the cell lysates. […] Therefore, ABAD inhibitors can block mitochondrial dysfunction mediated by Aβ.

[3] = Solubility in solvents during method development; type: physicochemical
Experimental: Method Development. During the development of a detection method for analytes 4, 8 and 15, multiple solvents were tested to find the optimal mobile phase. […] Acetonitrile was selected for better peak shape and compatibility with serum/brain protein precipitation. Compounds 8 and 15 were chosen as IS, because of their structural similarity. Selected reaction monitoring (SRM) acquisitions were used for sensitivity and extended dynamic range. The cone voltage and collision energy were optimized for 4, 8 and 15 and the IS by continuously infusing a mixture of the two. The optimum cone voltage was 30V.

[4] = Stability of standards under temperature and storage conditions; type: physicochemical; settings: standards in methanol; 25° C. short-term, −20° C. for twenty days
Experimental: Stability. The stability of compounds 4, 8, and 15 was evaluated in ACSF, plasma, and brain matrices under various temperature and storage conditions. Stability at room temperature was studied by analyzing samples at 25° C. for 2 and 4 hours and stability at −80° C. was checked for one month. Samples were analyzed after three (−80° C. to 25° C.) freeze-thaw cycles. Stability studies were performed at three concentrations.
Stability The stability of ABAD compounds were determined under different temperature and storage conditions. 4, 8 and 15 standards were dissolved in methanol and were subjected short-term exposure at 25° C. for and 4 hours long-term storage conditions were assessed at −20° C. for twenty days.

[5] = Table 7, 1:1 Langmuir binding fit, read-out: SPR KD

Chain of ABAD (Q99714 whole entry): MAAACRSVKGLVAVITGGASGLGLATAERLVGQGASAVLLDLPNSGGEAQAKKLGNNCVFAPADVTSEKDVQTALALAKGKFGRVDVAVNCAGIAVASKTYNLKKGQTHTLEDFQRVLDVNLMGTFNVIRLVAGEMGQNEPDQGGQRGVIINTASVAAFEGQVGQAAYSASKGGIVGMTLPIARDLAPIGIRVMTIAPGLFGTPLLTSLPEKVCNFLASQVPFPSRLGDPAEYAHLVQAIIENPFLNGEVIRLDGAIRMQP

COc1ccc2nc(N[C@@H](c3ccc(O)cc3)P(=O)(OC)OC)sc2c1 (racemic) [Compound 8, Dimethyl ((4-hydroxyphenyl)((6-methoxybenzo[d]thiazol-2-yl)amino)methyl)phosphonate]
Kd (ABAD; [5]): 291 nM
CcO activity, inhibitor alone (SK-N-SH cells [1]): no effect on CcO activity without Aβ
Aβ-mediated decrease of CcO activity (SK-N-SH cells [1]): reversed the Aβ-mediated decrease of CcO activity
ATP levels in Aβ-treated cells (SK-N-SH cells [2]): rescued ATP levels
ATP levels, inhibitor alone (SK-N-SH cells [2]): comparable to cells treated with vehicle alone without Aβ
solubility in methanol or acetonitrile [3]: dissolved readily in methanol or acetonitrile
solubility in water [3]: dissolved partially in water
stability, variability across all samples [4]: less than 10 % (RSD)

COC(=O)c1cc([C@H](Nc2nc3ccc(OC)cc3s2)P(=O)(OC)OC)ccc1O [Compound 4, Methyl 5-((dimethoxyphosphoryl)((6-methoxybenzo[d]thiazol-2-yl)amino)methyl)-2-hydroxybenzoate]
Kd (ABAD; Table 6, read-out: KD): 496 nM
Kd (ABAD; [5]): 496 nM
CcO activity, inhibitor alone (SK-N-SH cells [1]): no effect on CcO activity without Aβ
Aβ-mediated decrease of CcO activity (SK-N-SH cells [1]): reversed the Aβ-mediated decrease of CcO activity
ATP levels in Aβ-treated cells (SK-N-SH cells [2]): rescued ATP levels
ATP levels, inhibitor alone (SK-N-SH cells [2]): comparable to cells treated with vehicle alone without Aβ
solubility in methanol or acetonitrile [3]: dissolved readily in methanol or acetonitrile
solubility in water [3]: dissolved partially in water
stability, variability across all samples [4]: less than 10 % (RSD)

COc1ccc2nc(N[C@@H](c3ccc(F)cc3)P(=O)(OC)OC)sc2c1 [Compound 15, Dimethyl ((4-fluorophenyl)((6-methoxybenzo[d]thiazol-2-yl)amino)methyl)phosphonate]
Kd (ABAD; [5]): 264 nM
CcO activity, inhibitor alone (SK-N-SH cells [1]): no effect on CcO activity without Aβ
Aβ-mediated decrease of CcO activity (SK-N-SH cells [1]): reversed the Aβ-mediated decrease of CcO activity
ATP levels in Aβ-treated cells (SK-N-SH cells [2]): rescued ATP levels
ATP levels, inhibitor alone (SK-N-SH cells [2]): comparable to cells treated with vehicle alone without Aβ
solubility in methanol or acetonitrile [3]: dissolved readily in methanol or acetonitrile
solubility in water [3]: dissolved partially in water
stability, variability across all samples [4]: less than 10 % (RSD)
